# Reference: patent US11053204B2, “Pyrimidinyloxy benzene derivatives as herbicides” (FMC Corporation, priority 2015, dated 2021)
# Legend:
# Type in all cases: in vivo
# [1] = tested on: pigweed (Amaranthus retroflexus); assay: Test C preemergence, plant response rating; details: Preemergence
# [2] = tested on: lambsquarters (Chenopodium album); assay: Test C postemergence, plant response rating; details: Chenopodium album, post-emergence
# Procedure, shortened: (§1)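 Visual injury score, 0 = no effect, 100 = complete control, assigned against untreated controls after 13 to 15 d in the greenhouse. Compounds were applied in a surfactant-containing non-phytotoxic solvent mix, preemergence to seeded loam/sand or silt loam soil, or postemergence to 1- to 4-leaf plants (2 to 18 cm).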
# [3] = tested on: barnyardgrass (Echinochloa crus-galli); assay: Test C postemergence, plant response rating; details: Echinochloa crus-galli, post-emergence
# Procedure, shortened: as §1
# [4] = tested on: crabgrass, large (large crabgrass, Digitaria sanguinalis); assay: Test C postemergence, plant response rating; details: Digitaria sanguinalis, post-emergence
# Procedure, shortened: as §1
# [5] = tested on: ragweed (common ragweed, Ambrosia elatior); assay: Test C postemergence, plant response rating; details: Ambrosia artemisiifolia, post-emergence
# Procedure, shortened: as §1
# [6] = tested on: corn (Zea mays); assay: Test C postemergence, plant response rating; details: Zea mays, post-emergence
# Procedure, shortened: as §1
# [7] = tested on: foxtail, giant (giant foxtail, Setaria faberii); assay: Test C postemergence, plant response rating; details: Setaria faberi, post-emergence
# Procedure, shortened: as §1
# [8] = tested on: galium (catchweed bedstraw, Galium aparine); assay: Test C postemergence, plant response rating; details: Galium, post-emergence
# Procedure, shortened: as §1
# [9] = tested on: ryegrass, Italian (Italian ryegrass, Lolium multiflorum); assay: Test C postemergence, plant response rating; details: Lolium multiflorum, post-emergence
# Procedure, shortened: as §1
# [10] = tested on: oilseed rape (Brassica napus); assay: Test C postemergence, plant response rating; details: Brassica napus, post-emergence
# Procedure, shortened: as §1
# [11] = tested on: oat, wild (wild oat Avena fatua); assay: Test C postemergence, plant response rating; details: Avena fatua, post-emergence
# Procedure, shortened: as §1
# [12] = tested on: nutsedge, yellow (yellow nutsedge, Cyperus esculentus); assay: Test C postemergence, plant response rating; details: Cyperus, post-emergence
# Procedure, shortened: as §1
# [13] = tested on: velvetleaf (Abutilon theophrasti); assay: Test C postemergence, plant response rating; details: Abutilon theophrasti, post-emergence
# Procedure, shortened: as §1
# [14] = tested on: wheat (winter wheat, Triticum aestivum); assay: Test C postemergence, plant response rating; details: Triticum aestivum, post-emergence
# Procedure, shortened: as §1
# [15] = tested on: waterhemp (common waterhemp, Amaranthus rudis); assay: Test C postemergence, plant response rating; details: for Plant response rating, Waterhemp: scale 0 to 100; for Waterhemp plant response rating: scale 0 to 100 (0 no effect, 100 complete control)
# Procedure, shortened: as §1
# [16] = tested on: soybean (Glycine max); assay: Test C postemergence, plant response rating; details: Glycine max, post-emergence
# Procedure, shortened: as §1
# [17] = tested on: blackgrass (Alopecurus myosuroides); assay: Test C postemergence, plant response rating; details: Alopecurus myosuroides, post-emergence
# Procedure, shortened: as §1
# [18] = tested on: galium (catchweed bedstraw, Galium aparine); assay: Test C preemergence, plant response rating
# [19] = 62 g ai/ha, scale 0 to 100 (0 no effect, 100 complete control)
# [20] = 125 g ai/ha, scale 0 to 100 (0 no effect, 100 complete control)
compound,measurement,setting,value
"N#Cc1cccc(Oc2ncc(Cl)cn2)c1CCCCC(F)(F)F [Compound 73, 3-[(5-chloro-2-pyrimidinyl)oxy]-2-(5,5,5-trifluoropentyl)benzonitrile]","Plant response rating, Pigweed","[1]; 125 g ai/ha, scale of 0 to 100",100
same,"Plant response rating, Pigweed","[1]; 16 g ai/ha, scale 0 to 100",90
same,"Plant response rating, Pigweed","[1]; 31 g ai/ha, scale 0 to 100",95
same,"Plant response rating, Pigweed","[1]; 62 g ai/ha, scale 0 to 100",100
same,pest or weed control at 16 g/ha,"[2]; 16 g ai/ha, scale 0 to 100",75%
same,pest or weed control at 31 g/ha,"[2]; 31 g ai/ha, scale 0 to 100",80%
same,pest or weed control at 62 g/ha,[2]; [19],90%
same,pest or weed control at 125 g/ha,[2]; [20],98%
same,pest or weed control at 16 g/ha,"[3]; 16 g ai/ha, scale 0 to 100",10%
same,pest or weed control at 31 g/ha,"[3]; 31 g ai/ha, scale 0 to 100",15%
same,pest or weed control at 62 g/ha,[3]; [19],20%
same,pest or weed control at 125 g/ha,[3]; [20],30%
same,pest or weed control at 16 g/ha,"[4]; 16 g ai/ha, scale 0 to 100",15%
same,pest or weed control at 31 g/ha,"[4]; 31 g ai/ha, scale 0 to 100",10%
same,pest or weed control at 62 g/ha,[4]; [19],25%
same,pest or weed control at 125 g/ha,[4]; [20],60%
same,pest or weed control at 16 g/ha,"[5]; 16 g ai/ha, scale 0 to 100",50%
same,pest or weed control at 31 g/ha,"[5]; 31 g ai/ha, scale 0 to 100",55%
same,pest or weed control at 62 g/ha,[5]; [19],60%
same,pest or weed control at 125 g/ha,[5]; [20],65%
same,"Corn plant response rating (crop injury, 0 = no effect, 100 = complete kill) at 16 g/ha","[6]; 16 g ai/ha, scale 0 to 100",10%
same,"Corn plant response rating (crop injury, 0 = no effect, 100 = complete kill) at 31 g/ha","[6]; 31 g ai/ha, scale 0 to 100",20%
same,plant injury at 62 g/ha,[6]; [19],15%
same,plant injury at 125 g/ha,[6]; [20],15%
same,pest or weed control at 16 g/ha,"[7]; 16 g ai/ha, scale 0 to 100",15%
same,pest or weed control at 31 g/ha,"[7]; 31 g ai/ha, scale 0 to 100",25%
same,pest or weed control at 62 g/ha,[7]; [19],20%
same,pest or weed control at 125 g/ha,[7]; [20],25%
same,pest or weed control at 16 g/ha,"[8]; 16 g ai/ha, scale 0 to 100",70%
same,pest or weed control at 31 g/ha,"[8]; 31 g ai/ha, scale 0 to 100",70%
same,pest or weed control at 62 g/ha,[8]; [19],75%
same,pest or weed control at 125 g/ha,[8]; [20],98%
same,pest or weed control at 16 g/ha,"[9]; 16 g ai/ha, scale 0 to 100",5%
same,pest or weed control at 31 g/ha,"[9]; 31 g ai/ha, scale 0 to 100",5%
same,pest or weed control at 62 g/ha,[9]; [19],10%
same,pest or weed control at 125 g/ha,[9]; [20],20%
same,plant injury at 16 g/ha,"[10]; 16 g ai/ha, scale 0 to 100",5%
same,plant injury at 31 g/ha,"[10]; 31 g ai/ha, scale 0 to 100",80%
same,plant injury at 62 g/ha,[10]; [19],98%
same,plant injury at 125 g/ha,[10]; [20],50%
same,pest or weed control at 16 g/ha,"[11]; 16 g ai/ha, scale 0 to 100",5%
same,pest or weed control at 31 g/ha,"[11]; 31 g ai/ha, scale 0 to 100",5%
same,pest or weed control at 62 g/ha,[11]; [19],5%
same,pest or weed control at 125 g/ha,[11]; [20],10%
same,pest or weed control at 16 g/ha,"[12]; 16 g ai/ha, scale 0 to 100",5%
same,pest or weed control at 31 g/ha,"[12]; 31 g ai/ha, scale 0 to 100",15%
same,pest or weed control at 62 g/ha,[12]; [19],20%
same,pest or weed control at 125 g/ha,[12]; [20],30%
same,pest or weed control at 16 g/ha,"[13]; 16 g ai/ha, scale 0 to 100",40%
same,pest or weed control at 31 g/ha,"[13]; 31 g ai/ha, scale 0 to 100",60%
same,pest or weed control at 62 g/ha,"[13]; 62 g ai/ha, scale 0 to 100 (0 no effect, 100 complete control), read-out: Velvetleaf plant response rating",70%
same,pest or weed control at 125 g/ha,[13]; [20],75%
same,plant injury at 16 g/ha,"[14]; 16 g ai/ha, scale 0 to 100",0%
same,plant injury at 31 g/ha,"[14]; 31 g ai/ha, scale 0 to 100",5%
same,plant injury at 62 g/ha,"[14]; 62 g ai/ha, scale 0 to 100 (0 no effect, 100 complete control), read-out: Wheat plant response rating",5%
same,plant injury at 125 g/ha,[14]; [20],5%
same,"Plant response rating, Waterhemp",[15]; 16 g ai/ha,85
same,"Plant response rating, Waterhemp",[15]; 31 g ai/ha,98
same,Waterhemp plant response rating,[15]; 62 g ai/ha,100
same,Waterhemp plant response rating,[15]; 125 g ai/ha,100
same,plant injury at 16 g/ha,"[16]; 16 g ai/ha, scale 0 to 100",45%
same,plant injury at 31 g/ha,"[16]; 31 g ai/ha, scale 0 to 100",70%
same,plant injury at 62 g/ha,[16]; [19],75%
same,plant injury at 125 g/ha,[16]; [20],60%
same,pest or weed control at 16 g/ha,"[17]; 16 g ai/ha, scale 0 to 100",10%
same,pest or weed control at 31 g/ha,"[17]; 31 g ai/ha, scale 0 to 100",5%
same,pest or weed control at 62 g/ha,[17]; [19],40%
same,pest or weed control at 125 g/ha,[17]; [20],35%
same,"Plant response rating, Galium","[18]; 16 g ai/ha, scale 0 to 100",5
same,"Plant response rating, Galium","[18]; 31 g ai/ha, scale 0 to 100",10
same,"Plant response rating, Galium","[18]; 62 g ai/ha, scale of 0 to 100",100
same,"Plant response rating, Galium","[18]; 125 g ai/ha, scale of 0 to 100",100
